Tests used:
[1] = tested on: primary cell cultures of cortical neurons of rats; experiment: Oxygen and glucose deprivation (OGD) model, LDH level in the medium; format: cell-based; conditions: for LDH level: OGD, after 24 hours, OGD control 25.1
Description: The measurements were performed on primary cell cultures of cortical neurons of rats. After the cells were grown in culture, the following test was performed:
Glucose and oxygen were simultaneously removed from the culture solution. This model is a definitely sturdy model, which simulates the conditions during a very serious and very extensive stroke. In the zero comparison, the culture solution was left unchanged (BSS=balanced salt solution). In the control, oxygen and glucose were removed (OGD=oxygen and glucose deprivation); in the test group, Abecarnil was added simultaneously to the oxygen and glucose removal.
As damage parameters for the neurons, the LDH (lactate-dehydrogenase) level in the solution was measured by the cells. LDH is a definitely reliable stress parameter for the cells. The stronger the neuronal stress is or the more cells are already ruined, the more the LDH levels in the medium increase. From a pharmaceutical agent with a neuroprotective effect, it can be expected that it reduces the LDH level in the medium.
In FIG. 1, the values of such a measurement were depicted. If the LDH levels were below OGD 25.1, they were 11.0 with 0.1 μm of Abecarnil; 6.2 with 1 μm of Abecarnil; 14.9 with 10 μm of Abecarnil, and 15 with 100 μm of Abecarnil (after 24 hours). In the case of an Abecarnil concentration of 1 μm, this corresponds to an LDH reduction of over 75%!

NMDA receptor = experiment: Isolated NMDA portion of EPSCs (10 μm NBQX applied); format: cell-based, Wistar; conditions: 10 μm of NBQX on isolated EPSCs, 1 μm of compound; n=7
Description: (§1) The measurements were produced on cultivated neurons of Wistar embryos on the eighteenth day of gestation. After the preparation, the neurons were grown on small plates. To this end, small cover glasses for microscopic preparations with a diameter of 12 mm (assistant) were used. In each case four of the small cover glasses were transferred to a small plastic dish (Nuncion).
(§2) As preparation media, the following solutions were used: GBSS (Grey's buffered salt solution, Sigma) supplemented with 10 mmol of HEPES (N-2-hydroxyethyl-piperazine-N-2-ethanesulfonic acid, Sigma), adjusted to pH 7.3 with NaOH (Sigma). […]
(§3) The measurements were carried out at room temperature. […] The thus modulated signals were visualized by means of a storage oscilloscope and recorded with a thermal plotter. At the same time, the signals were detected via a […] and recorded on a videotape. The stored data were later played back, digitalized again and then evaluated “offline” with a PC. […]
(§4) Excitatory post-synaptic flows (EPSCs) were isolated by adding the GABAA-receptor antagonists bicuculline (20 μm) and the GABAA-receptor antagonist picrotoxin (10 μm) that has an allosteric effect. […] The pure EPSCs that can now be detected could be blocked completely by adding 10 μm of NBQX and 30 μm of APV and thus are purely glutamatergic. […]

glutamatergic EPSCs = experiment: Excitatory post-synaptic flows (EPSCs), patch-clamp on cultivated neurons; format: cell-based, Wistar; conditions: P<0.05
Description: as §1, §2, §3
Excitatory post-synaptic flows (EPSCs) were isolated by adding the GABAA-receptor antagonists bicuculline (20 μm) and the GABAA-receptor antagonist picrotoxin (10 μm) that has an allosteric effect. […] The pure EPSCs that can now be detected could be blocked completely by adding 10 μm of NBQX and 30 μm of APV and thus are purely glutamatergic.

[2] = tested on: GABAA-receptor-mediated IPSCs; experiment: Inhibitory post-synaptic flows (IPSCs), patch-clamp on cultivated neurons; format: cell-based, Wistar
Description: as §1
As preparation media, the following solutions were used: GBSS (Grey's buffered salt solution, Sigma) supplemented with 10 mmol of HEPES (N-2-hydroxyethyl-piperazine-N-2-ethanesulfonic acid, Sigma), adjusted to pH 7.3 with NaOH (Sigma). As culture media, the following were used: DMEM (Sigma), glucose-containing, equine serum 10% (Sigma) and glutamine. The cells were generally divided so that at the beginning of the culture, 50,000 cells per small plate were present. The medium was changed according to the preparation after 24 hours and then changed after three days in each case. Synaptic spontaneous activity developed generally starting from the tenth day in vitro.
The extracellular measuring solution had the following composition (in mmol): NaCl 140; KCl 5.4; CaCl2 2; HEPES 10; MgCl 1; glucose 25. The pH was set at 7.4 with NaOH. IPSCs were isolated by adding 1,2,3,4,-tetrahydro-6-nitro-2,3-di-oxo-benzo-quinoxaline-7-sulfonamide (NBQX 10 μm) and DL-2-amino-5-phosphonovaleric acid (±-APV 30 μm). EPSCs were isolated by adding bicuculline (10 μm) and picrotoxin (20 μm). In the examination of the EPSCs, a ringer solution without MgCl2 was used. The pipette solution had the following composition (in mmol): KCl 120; MgCl2 2; CaCl2 1; HEPES 10; EGTA 11; glucose 20; the pH was 7.2.
as §3

AMPA-ergic activity = experiment: Isolated AMPA-ergic activity of EPSCs (30 μm APV applied); format: cell-based, Wistar; conditions: 30 μm of APV on isolated EPSCs; n=3
Description: as §1, §2, §3, §4

Question: Which LDH level ([1]; 0.1 μm of Abecarnil) does the source give for `COCc1c(C(=O)OC(C)C)ncc2[nH]c3ccc(OCc4ccccc4)cc3c12` [Abecarnil, 6-benzyloxy-4-methoxymethyl-β-carboline-3-carboxylic acid isopropyl ester] here?
Answer: Its LDH level is 11.0.

Question: What about the LDH level ([1]; 1 μm of Abecarnil) of the same compound?
Answer: Its LDH level is 6.2.

Question: And the LDH reduction ([1]; 1 μm of Abecarnil, versus OGD)?
Answer: The LDH reduction was “over 75%”.

Question: And the LDH level ([1]; 10 μm of Abecarnil)?
Answer: Its LDH level is 14.9.

Question: And the LDH level ([1]; 100 μm of Abecarnil)?
Answer: The LDH level was 15.

Question: What about the “effect on isolated NMDA portion of EPSC activity” value (NMDA receptor) of the same compound?
Answer: The value was “completely blocked”.

Question: And the “EPSC amplitude, % of the starting value” (glutamatergic EPSCs)?
Answer: Its value is 81.2±17.8%.

Question: And the “EPSC frequency, % of the starting value” (glutamatergic EPSCs)?
Answer: The value was 32.6±19.8%.

Question: What about the “slow time constant of the averaged IPSCs (τslow), % of the starting value” ([2]; P<0.05) of the same compound?
Answer: Its value is 289.7±180.9%.

Question: What about the “IPSC frequency, % of the starting value” ([2]; n=10, P<0.05) of the same compound?
Answer: Its value is 33.8±24.7%.

Question: And the “quick time constant of the averaged IPSCs (τfast), % of the starting value” ([2]; no statistical significance)?
Answer: The value was 143.9±51.0%.

Question: And the “effect on isolated AMPA-ergic activity” value (AMPA-ergic activity)?
Answer: The value was “no effect”.

Reference: patent publication US20030045541A1, “GABA-Receptor modulators with NMDA-Antagonistic activity” (priority 2001, published 2003)
